Values quoted from earlier work as cited in patent publication US20250325473A1, “COLLAGEN-IMPREGNATED DEVICES AND METHODS FOR TREATMENT OF CANCER” (COLLAGEN MATRIX, INC., priority 2022, published 2025).
Square brackets hold non-standard residues; d marks the D form. Ends that are not written are not given here. Hyp = O=C(O)[C@@H]1C[C@@H](O)CN1

How the values were obtained:
Parameters in all cases: key: A plus sign (+) indicates a response similar in peptides II-22, III-23, or GPS-GFO (control); a minus sign (−) Indicates less than 20% of control; +/−: +/ − indicates 20-80% of control
DDR1-Fc or DDR1-Fc2 = settings: binding to DDR1-Fc or DDR1-Fc2, response relative to control peptides II-22, III-23 or GPS-GFO; guest sequences flanked by (GPP)
DDR1-Fc or DDR1-Fc2, sequence (Q08345 31-185 limits assumed): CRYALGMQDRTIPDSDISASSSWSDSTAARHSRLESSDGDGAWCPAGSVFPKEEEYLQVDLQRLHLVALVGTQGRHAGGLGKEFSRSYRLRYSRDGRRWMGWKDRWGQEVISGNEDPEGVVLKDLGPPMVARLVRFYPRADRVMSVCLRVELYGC

His-DDR2 or DS2-Fc = settings: binding to His-DDR2 or DS2-Fc, response relative to control peptides II-22, III-23 or GPS-GFO; guest sequences flanked by (GPP)
His-DDR2 or DS2-Fc, sequence (Q16832 30-185 limits assumed): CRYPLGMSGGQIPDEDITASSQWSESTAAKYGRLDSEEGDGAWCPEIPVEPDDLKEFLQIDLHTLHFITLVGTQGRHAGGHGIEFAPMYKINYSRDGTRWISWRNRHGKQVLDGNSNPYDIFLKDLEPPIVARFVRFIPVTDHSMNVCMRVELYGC

DDR2-Fc or DDR2-Fc2 = settings: binding to DDR2-Fc or DDR2-Fc2, response relative to control peptides II-22, III-23 or GPS-GFO; includes data from Konitsiotis et al. 2008
DDR2-Fc or DDR2-Fc2, sequence (Q16832 30-185 limits assumed): as above

Substance	DDR1 binding (DDR1-Fc or DDR1-Fc2)	DDR2 binding (His-DDR2 or DS2-Fc)	DDR2 binding (DDR2-Fc or DDR2-Fc2)
GFOGER [GPOGER]	− (a minus sign (−) indicates less than 10% of control)	− (a minus sign (−) Indicates less than 20% of control)	− (a minus sign (−) indicates less than 10% of control)
GPSGPRGQOGVM (GPSGPRGQ[Hyp]GVM; not fully specified) [GPS-GVN]	− (a minus sign (−) indicates less than 10% of control)	− (a minus sign (−) Indicates less than 20% of control)	− (a minus sign (−) indicates less than 10% of control)
GAKGSAGAOGIAGAOGFOGPRGPOGPQ (GAKGSAGA[Hyp]GIAGA[Hyp]GF[Hyp]GPRGP[Hyp]GPQ; not fully specified) [II- ? 3, label partly illegible]	− (a minus sign (−) indicates less than 10% of control)	–	+
GPSGARGQOGVMGFO (GPSGARGQ[Hyp]GVMGF[Hyp]; not fully specified) [GPS-GFO-5A]	+	− (a minus sign (−) Indicates less than 20% of control)	+
GPSGPRGQO (GPSGPRGQ[Hyp]; not fully specified) [GPS-GQO]	− (a minus sign (−) indicates less than 10% of control)	− (a minus sign (−) Indicates less than 20% of control)	− (a minus sign (−) indicates less than 10% of control)
GARGAQGPOGATGFOGAAGRVGPOGSN (GARGAQGP[Hyp]GATGF[Hyp]GAAGRVGP[Hyp]GSN; not fully specified) [II- ? 9, label partly illegible]	+/− ((+/− indicates 30-80% of control)	–	+/− ((+/− indicates 30-80% of control)
GPRGQOGVMGFOGPK (GPRGQ[Hyp]GVMGF[Hyp]GPK; not fully specified) [GPR-GPK]	(+)/− ((+)/− indicates 20-30% of control)	− (a minus sign (−) Indicates less than 20% of control)	+
GVMGFO (GVMGF[Hyp]; not fully specified)	+/− ((+/− indicates 30-80% of control)	+/− (+/ − indicates 20-80% of control)	+/− ((+/− indicates 30-80% of control)
GAOGPLGIAGITGARGLAGPOGMOGPR (GA[Hyp]GPLGIAGITGARGLAGP[Hyp]GM[Hyp]GPR; not fully specified) [III-44]	− (a minus sign (−) indicates less than 10% of control)	–	+
GARGEOGNIGFO (GARGE[Hyp]GNIGF[Hyp]; not fully specified) [CI-alpha2]	+/− ((+/− indicates 30-80% of control)	− (a minus sign (−) Indicates less than 20% of control)	(+)/− ((+)/− indicates 20-30% of control)
GAOGEDGROGPOGPQGARGQOGVMGFO (GA[Hyp]GEDGR[Hyp]GP[Hyp]GPQGARGQ[Hyp]GVMGF[Hyp]; not fully specified) [II-22]	+	+	+
GPOGPQGVKGERGSDGGDGAAGFOGAR [III- ? 9]	− (a minus sign (−) indicates less than 10% of control)	–	+
GARGQOGVMGFO (GARGQ[Hyp]GVMGF[Hyp]; not fully specified) [GAR-GFO]	+	–	–
(GAP) -GPRGQOGVMGFO-(GAP) (GAPGAPGAPGAPGAPGPRGQ[Hyp]GVMGF[Hyp]GAPGAPGAPGAPGAP; not fully specified) [GAP-GPR-GFO, non-helical peptide flanked by (GAP) instead of (GPP)]	− (a minus sign (−) indicates less than 10% of control)	+/− (+/ − indicates 20-80% of control)	− (a minus sign (−) indicates less than 10% of control)
GPSGPRGQAGVMGFO (GPSGPRGQAGVMGF[Hyp]; not fully specified) [GPS-GFO-9A]	+	+	+
GASGDRGPOGPVGPOGLTGPAGEOGRE [II-46]	+/− ((+/− indicates 30-80% of control)	–	− (a minus sign (−) indicates less than 10% of control)

Substance	DDR1 binding (DDR1-Fc or DDR1-Fc2)	DDR2 binding (His-DDR2 or DS2-Fc)	DDR2 binding (DDR2-Fc or DDR2-Fc2)
GFOGPK (GF[Hyp]GPK; not fully specified)	− (a minus sign (−) indicates less than 10% of control)	− (a minus sign (−) Indicates less than 20% of control)	− (a minus sign (−) indicates less than 10% of control)
GPOGPSGPRGQOGVMGFOGPKGNDGAO (GP[Hyp]GPSGPRGQ[Hyp]GVMGF[Hyp]GPKGNDGA[Hyp]; not fully specified) [III-23]	+	+	+
GARGQAGVMGFO (GARGQAGVMGF[Hyp]; not fully specified) [CI-alpha1]	+	+	+
GARGFOGTOGLOGVKGRRGYOGLDGAK [II-5]	− (a minus sign (−) indicates less than 10% of control)	–	+/− ((+/− indicates 30-80% of control)
GERGLOGPOGIKGPAGIDGFOGMKGHR [III-5]	− (a minus sign (−) indicates less than 10% of control)	–	+
GPSGPAGQOGVMGFO (GPSGPAGQ[Hyp]GVMGF[Hyp]; not fully specified) [GPS-GFO-6A]	+/− ((+/− indicates 30-80% of control)	+	+/− ((+/− indicates 30-80% of control)
GPSGPRGQOGVMGAO (GPSGPRGQ[Hyp]GVMGA[Hyp]; not fully specified) [GPS-GFO-14A]	− (a minus sign (−) indicates less than 10% of control)	− (a minus sign (−) Indicates less than 20% of control)	− (a minus sign (−) indicates less than 10% of control)
GQOGVMGFOGPKGANGEOGKAGEKGLO (GQ[Hyp]GVMGF[Hyp]GPKGANGE[Hyp]GKAGEKGL[Hyp]; not fully specified) [II-23]	− (a minus sign (−) indicates less than 10% of control)	+	+
GLAGRQGIVGLDGQRGERGFOGLOGPS [II-44]	− (a minus sign (−) indicates less than 10% of control)	–	+
GPSGPRGQOGAMGFO (GPSGPRGQ[Hyp]GAMGF[Hyp]; not fully specified) [GPS-GFO-11A]	+	+	+
GPSGPRGQOGVAGFO (GPSGPRGQ[Hyp]GVAGF[Hyp]; not fully specified) [GPS-GFO-12A]	− (a minus sign (−) indicates less than 10% of control)	+	(+)/− ((+)/− indicates 20-30% of control)
GPSGPRGQOGVMGFO [GPS-GFO]	+	+	+
GPSGPRGAOGVMGFO (GPSGPRGA[Hyp]GVMGF[Hyp]; not fully specified) [GPS-GFO-8A]	+	+/− (+/ − indicates 20-80% of control)	+
GPSGPRGQOGVMGFA (GPSGPRGQ[Hyp]GVMGFA; not fully specified) [GPS-CFO-15A]	(+)/− ((+)/− indicates 20-30% of control)	+/− (+/ − indicates 20-80% of control)	+/− ((+/− indicates 30-80% of control)
GQOGVMGFO (GQ[Hyp]GVMGF[Hyp]; not fully specified) [GQO-GFO]	+/− ((+/− indicates 30-80% of control)	+	+/− ((+/− indicates 30-80% of control)
GPRGQOGVMGFO [GPR-GFO]	+	+	+
